{"source": "ChEMBL document CHEMBL1134304", "about": "“Discovery of novel p-arylthio cinnamides as antagonists of leukocyte function-associated antigen-1/intercellular adhesion molecule-1 interaction. 4. Structure-activity relationship of substituents on the benzene ring of the cinnamide” (J Med Chem, 2001)", "key": {"[1]": {"biological_target": "Intercellular adhesion molecule (ICAM-1), Integrin alpha-L/beta-2 (Homo sapiens, UniProt P05107+P20701)", "sequence (P05362 whole entry, one chain of several, further chain)": "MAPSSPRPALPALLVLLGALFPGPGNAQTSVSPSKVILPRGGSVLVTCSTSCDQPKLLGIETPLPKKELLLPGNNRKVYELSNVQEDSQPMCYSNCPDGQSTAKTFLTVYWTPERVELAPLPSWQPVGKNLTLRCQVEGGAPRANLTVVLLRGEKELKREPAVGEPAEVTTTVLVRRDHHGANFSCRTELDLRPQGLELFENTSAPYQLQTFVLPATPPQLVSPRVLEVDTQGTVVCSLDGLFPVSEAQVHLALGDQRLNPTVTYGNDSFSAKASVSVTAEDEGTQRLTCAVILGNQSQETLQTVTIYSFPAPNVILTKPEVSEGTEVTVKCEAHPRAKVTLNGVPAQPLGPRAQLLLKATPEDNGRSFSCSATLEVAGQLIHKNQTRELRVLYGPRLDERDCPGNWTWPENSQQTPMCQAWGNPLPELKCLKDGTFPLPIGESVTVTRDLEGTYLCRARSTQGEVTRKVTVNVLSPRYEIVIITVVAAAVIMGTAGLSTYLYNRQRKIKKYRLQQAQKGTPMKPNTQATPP", "sequence (P05107 whole entry, one chain of several)": "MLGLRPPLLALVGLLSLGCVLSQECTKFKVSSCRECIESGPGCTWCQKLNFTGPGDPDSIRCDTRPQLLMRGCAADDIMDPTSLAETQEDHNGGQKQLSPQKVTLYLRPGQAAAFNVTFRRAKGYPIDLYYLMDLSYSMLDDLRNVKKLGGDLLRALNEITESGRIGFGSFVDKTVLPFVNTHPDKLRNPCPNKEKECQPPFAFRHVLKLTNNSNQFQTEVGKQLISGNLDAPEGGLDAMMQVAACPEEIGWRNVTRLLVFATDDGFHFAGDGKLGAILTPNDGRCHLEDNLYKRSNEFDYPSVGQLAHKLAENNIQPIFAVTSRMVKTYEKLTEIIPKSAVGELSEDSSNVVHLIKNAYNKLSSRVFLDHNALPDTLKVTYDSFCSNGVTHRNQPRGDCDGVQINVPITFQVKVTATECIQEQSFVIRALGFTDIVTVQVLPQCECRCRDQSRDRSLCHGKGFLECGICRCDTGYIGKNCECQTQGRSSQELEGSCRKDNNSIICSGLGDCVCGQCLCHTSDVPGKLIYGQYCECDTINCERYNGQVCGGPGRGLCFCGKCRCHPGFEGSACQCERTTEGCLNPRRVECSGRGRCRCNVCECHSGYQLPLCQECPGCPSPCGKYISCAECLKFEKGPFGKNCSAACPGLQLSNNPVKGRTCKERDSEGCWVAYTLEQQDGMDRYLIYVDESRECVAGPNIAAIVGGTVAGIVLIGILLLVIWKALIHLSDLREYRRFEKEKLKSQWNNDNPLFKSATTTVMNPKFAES", "assay": "Inhibition of LFA-1 mediated JY-8 cell adhesion to ICAM-1, range (6-100)", "type": "functional, cell-based"}, "Integrin alpha-L": {"biological_target": "T1, Integrin alpha-L (Homo sapiens, UniProt P20701)", "T1 sequence (P20701 whole entry)": "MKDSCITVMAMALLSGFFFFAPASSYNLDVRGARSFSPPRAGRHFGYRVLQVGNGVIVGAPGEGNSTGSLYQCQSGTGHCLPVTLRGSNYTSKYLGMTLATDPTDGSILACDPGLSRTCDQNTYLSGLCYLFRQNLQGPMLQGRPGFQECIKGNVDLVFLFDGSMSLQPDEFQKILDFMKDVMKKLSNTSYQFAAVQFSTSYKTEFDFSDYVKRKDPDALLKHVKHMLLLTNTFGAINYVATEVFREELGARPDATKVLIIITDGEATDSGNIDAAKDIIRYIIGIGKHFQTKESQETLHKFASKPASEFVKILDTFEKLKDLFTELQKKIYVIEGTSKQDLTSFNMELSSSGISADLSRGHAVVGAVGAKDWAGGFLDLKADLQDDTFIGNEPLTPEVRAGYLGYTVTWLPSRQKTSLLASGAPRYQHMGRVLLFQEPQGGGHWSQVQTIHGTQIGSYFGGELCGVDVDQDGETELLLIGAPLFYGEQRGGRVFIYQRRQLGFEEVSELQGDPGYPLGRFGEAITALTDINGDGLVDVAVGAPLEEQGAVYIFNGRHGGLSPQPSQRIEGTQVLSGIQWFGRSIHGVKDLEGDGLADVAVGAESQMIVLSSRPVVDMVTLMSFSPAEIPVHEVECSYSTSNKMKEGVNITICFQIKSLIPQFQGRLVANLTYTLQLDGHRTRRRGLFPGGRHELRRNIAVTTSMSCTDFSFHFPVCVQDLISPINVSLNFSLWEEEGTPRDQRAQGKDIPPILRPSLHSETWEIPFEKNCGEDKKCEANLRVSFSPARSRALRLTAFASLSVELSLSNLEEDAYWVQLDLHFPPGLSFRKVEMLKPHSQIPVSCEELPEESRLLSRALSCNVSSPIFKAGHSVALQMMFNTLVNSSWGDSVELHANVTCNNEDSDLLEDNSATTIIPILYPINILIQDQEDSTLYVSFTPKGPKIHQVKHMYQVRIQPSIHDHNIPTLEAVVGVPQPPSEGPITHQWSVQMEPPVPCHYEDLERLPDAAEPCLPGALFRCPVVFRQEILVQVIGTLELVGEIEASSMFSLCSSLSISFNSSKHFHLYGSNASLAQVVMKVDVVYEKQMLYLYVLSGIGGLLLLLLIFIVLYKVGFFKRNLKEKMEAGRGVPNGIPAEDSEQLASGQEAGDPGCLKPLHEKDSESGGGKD", "assay": "Inhibition of intercellular adhesion molecule-1 (ICAM-1) binding to recombinant LFA-1, range(130-170)"}}}
{"smiles": "COc1ccccc1Sc1ccc(/C=C/C(=O)N2CCOCC2)cc1Cl", "values": [{"measurement": "IC50", "setting": "[1]", "value": 40, "unit": "nM"}, {"measurement": "IC50", "setting": "Integrin alpha-L", "value": 150, "unit": "nM"}]}
